Measurements taken from US20080058269A1, “Insulin Releasing Peptides” (priority 2003, published 2008).
Where two headings read alike, the source gives them in different places.

Key:
BRIN-BD11 cells [1] = type: cell-based, rat; details: for Insulin-releasing action in the presence of verapamil (in words): 50 μM verapamil, calcium channel blocker; for Insulin-releasing action in cells depolarised with KCl (in words): 30 mM KCl
Experimental: (§1) Culture of insulin-secreting cells: Clonal rat insulin-secreting BRIN-BD11 cells were cultured in RPMI-1640 tissue culture medium containing 10% (v/v) fetal calf serum, 1% (v/v) antibiotics (100 U/ml penicillin, 0.1 mg/ml streptomycin) and 11.1 mM glucose. The production and characterisation of BRIN-BD11 cells are described elsewhere. Cells were maintained in sterile tissue culture flasks (Corning, Glass Works, UK) at 37° C. in an atmosphere of 5% CO2 and 95% air using LEEC incubator (Laboratory Technical Engineering, Nottingham, UK). In three experimental series using purified peptides from Agalychnis calcarifer, Bombina variegata and Rana saharica cells were cultured overnight with 25 μM forskolin, 10 nM PMA or 0.1 μg/ml pertussis toxin prior to acute tests.
Acute insulin release studies: Insulin release from BRIN-BD11 cells was determined using cell monolayers [McClenaghan N H, Barnett C R, Ah-Sing E, Abdel-Wahab Y H, O'Harte F P, Yoon T W, Swanston-Flatt S K and Flatt P R 1996 Characterization of a novel glucose-responsive insulin-secreting cell line, BRIN-BD11, produced by electrofusion. Diabetes 45 1132-1140]. The cells were harvested with the aid of trypsin/EDTA (Gibco), seeded into 24-multiwell plates (Nunc, Rosklide, Denmark) at a density of […] per well, and allowed to attach overnight. Prior to acute test, cells were preincubated for 40 min at 37° C. in a 1.0 ml Krebs Ringer bicarbonate buffer (115 mM NaCl, 4.7 mM KCl, 1.28 MM CaCl2, 1.2 MM KH2PO4, 1.2 mM MgSO4, 10 mM NaHCO3, 5 g/l bovine serum albumin, pH 7.4) supplemented with 1.1 mM glucose. Test incubations were performed for 20 min at 37° C. using the same buffer supplemented with 5.6 mM glucose in the absence (control) and presence of various venom fractions, peaks (equivalent to approx. 25 μl dried HPLC fraction) or test agents as indicated in the Figures. Cell viability after 20 min test incubations was assessed by modified neutral red assay [Hunt S M, Chrzanowska C, Barnnett C R, Brand H N and Fawell J K 1987 A comparison of in vitro cytotoxicity assays and their application to water samples. Alternatives to Laboratory Animals 15 20-29]. After incubation, aliquots of buffer were removed and stored at −20° C. for insulin radiomnimmunoassay [Flatt P R. and Bailey C J 1981 Abnormal plasma glucose and insulin responses in heterozygous lean (ob/+) mice. Diabetologia 20 573-577].

BRIN-BD11 cells [2] = test: Acute insulin release from BRIN-BD11 cells cultured overnight with forskolin, PMA or pertussis toxin; type: cell-based, rat; details: acute test at 5.6 mM glucose; for Stimulatory effect on insulin secretion in cells cultured overnight with PMA: 10 nM PMA overnight (protein kinase C pathway); for Stimulatory effect on insulin secretion in cells cultured overnight with pertussis toxin: 0.1 μg/ml pertussis toxin overnight (G-protein pathway); for Stimulatory effect on insulin secretion in cells cultured overnight with forskolin: 25 μM forskolin overnight (desensitised cyclic AMP-protein kinase A pathway)
Experimental: FIG. 8 illustrates the dependence of the stimulatory effects of 1653.2 Da purified peptide (peak 1.10) from Agalychnis calcarifer on intracellular pathways mediated by protein kinase A (forskolin), protein kinase C (PMA) or pertussis toxin-sensitive G-proteins. Legend: Acute effects of the 13 amino acid 1653.2 Da purified peptide (peak 1.10) from Agalychnis calcarifer on forskolin and PMA on insulin secretion from BRIN-BD11 cells cultured overnight in the absence (control) and presence of 25 μM forskolin, 10 nM PMA or 0.1 μg/ml pertussis toxin. Acute incubations were performed at 5.6 mM glucose. Values are the mean ±SEM for 8 separate observations. ***P<0.001 compared with 5.6 mM glucose alone under same culture conditions. ^ΔΔΔp<0.001 compared with respective test reagent following control culture.
FIG. 9 illustrates the dependence of the stimulatory effects of 1641.7 Da, 1662.6 Da, 1619.8 Da and 1650.5 Da purified peptides (peaks 21, 22, 23 and 24) from Bombina variegata on intracellular pathways mediated by protein kinase A (forskolin), protein kinase C (PMA) or pertussis toxin-sensitive G-proteins. Legend: Acute effects of 1641.7, 1662.6, 1619.8 and 1650.5 Da purified peptides (peaks 21, 22, 23 and 24) from Bombina variegata on forskolin and PMA on insulin secretion from BRIN-BD11 cells cultured overnight in the absence (control) and presence of 25 μM forskolin, 10 nM PMA or 0.1 μg/ml pertussis toxin. Acute incubations were performed at 5.6 mM glucose. Values are the mean ±SEM for 8 separate observations. **P<0.001 compared with 5.6 mM glucose alone under same culture conditions. ^ΔP<0.001 compared with respective test reagent following control culture.
FIG. 10 illustrates the dependence of the stimulatory effects of 4920.4 Da and 4801.2 Da purified peptides (peaks 5.1 and 5.4) from Rana saharica on intracellular pathways mediated by protein kinase A (forskolin), protein kinase C (PMA) or pertussis toxin-sensitive G-proteins. Legend: Acute effects of 4920.4 and 4801.2 Da purified peptides (peaks 5.1 and 5.4) from Rana saharica on forskolin and PMA on insulin secretion from BRIN-BD11 cells cultured overnight in the absence (control) and presence of 25 μM forskolin, 10 nM PMA or […] pertussis toxin. Acute incubations were performed at 5.6 mM glucose. Values are the mean ±SEM for 8 separate observations. ***P<0.001 compared with 5.6 mM glucose alone under same culture conditions. ^ΔΔP<0.001 compared with respective test reagent following control culture.
as §1
Acute insulin release studies: Insulin release from BRIN-BD11 cells was determined using cell monolayers [McClenaghan N H, Barnett C R, Ah-Sing E, Abdel-Wahab Y H, O'Harte F P, Yoon T W, Swanston-Flatt S K and Flatt P R 1996 Characterization of a novel glucose-responsive insulin-secreting cell line, BRIN-BD11, produced by electrofusion. Diabetes 45 1132-1140]. The cells were harvested with the aid of trypsin/EDTA (Gibco), seeded into 24-multiwell plates (Nunc, Rosklide, Denmark) at a density of […] per well, and allowed to attach overnight. […]

[3] = Table 9, no addition, 5.6 mM glucose, 8 observations, control 1.69 ± 0.17
[4] = Table 9, peptide plus KCl (30 mM), 5.6 mM glucose, 8 observations
[5] = Table 9, peptide plus verapamil (50 μM), 5.6 mM glucose, 8 observations

Substance | Insulin release (ng/10^6 cells/20 mins) (BRIN-BD11 cells [1]) | Insulin-releasing action in the presence of verapamil (in words) (BRIN-BD11 cells [1]) | Insulin-releasing action in cells depolarised with KCl (in words) (BRIN-BD11 cells [1]) | Insulin secretion (ng/10^6 cells/20 min) (BRIN-BD11 cells [1]; [3]) | Insulin secretion (ng/10^6 cells/20 min) (BRIN-BD11 cells [1]; [4]) | Insulin secretion (ng/10^6 cells/20 min) (BRIN-BD11 cells [1]; [5]) | Stimulatory effect on insulin secretion in cells cultured overnight with PMA (BRIN-BD11 cells [2]) | Stimulatory effect on insulin secretion in cells cultured overnight with pertussis toxin (BRIN-BD11 cells [2]) | Stimulatory effect on insulin secretion in cells cultured overnight with forskolin (BRIN-BD11 cells [2]) | Insulin secretion (ng/10^6 cells/20 min) (BRIN-BD11 cells [1]; Table 8, no addition, 5.6 mM glucose, control 1.68 ± 0.16) | Insulin secretion (ng/10^6 cells/20 min) (BRIN-BD11 cells [1]; Table 8, peptide plus KCl (30 mM), 5.6 mM glucose) | Insulin secretion (ng/10^6 cells/20 min) (BRIN-BD11 cells [1]; Table 8, peptide plus verapamil (50 μM), 5.6 mM glucose) | Insulin release (ng/10^6 cells/20 mins) (BRIN-BD11 cells [1]; peptides from Agalychnis calcarifer, 5.6 mM glucose, no-peptide control 1.71 ± 0.12)
GKPFYPPPIYPEDM [Peptide 24, peptide from Bombina variegata, 57% ID to tryptophyllin] | 4.30 ± 0.20 | not affected | clearly evident | 3.31 ± 0.20 | 15.35 ± 0.41ΔΔΔ*** ng/10^6 cells/20 min | 3.08 ± 0.29 | did not affect | did not affect | abolished |  |  |  | 
Pyr-DSFGNQWARGHFM-amidated (HELM PEPTIDE1{[Glp].D.S.F.G.N.Q.W.A.R.G.H.F.M.[am]}$$$$V2.0; SMILES CSCC[C@H](NC(=O)[C@H](Cc1ccccc1)NC(=O)[C@H](Cc1c[nH]cn1)NC(=O)CNC(=O)[C@H](CCCNC(=N)N)NC(=O)[C@H](C)NC(=O)[C@H](Cc1c[nH]c2ccccc12)NC(=O)[C@H](CCC(N)=O)NC(=O)[C@H](CC(N)=O)NC(=O)CNC(=O)[C@H](Cc1ccccc1)NC(=O)[C@H](CO)NC(=O)[C@H](CC(=O)O)NC(=O)[C@@H]1CCC(=O)N1)C(N)=O) [Peptide 22, peptide from Bombina variegata, 72% ID to bombesin] | 4.75 ± 0.13 | not affected | clearly evident | 3.23 ± 0.14 | 13.69 ± 1.43ΔΔΔ*** ng/10^6 cells/20 min | 3.05 ± 0.09 | did not affect | did not affect | abolished |  |  |  | 
Pyr-QRLGHQWAVGHLM-amidated (N-terminal pyroglutamate, C-terminal amide) [Peptide 21, peptide from Bombina variegata, (His)^6Bombesin, 93% ID to bombesin] | 4.66 ± 0.24 | not affected | clearly evident | 3.65 ± 0.05 | 13.68 ± 1.42ΔΔΔ*** ng/10^6 cells/20 min | 4.25 ± 0.82 | did not affect | did not affect | abolished |  |  |  | 
RRKPLFPFIPRPK [Peptide 1.10, 13 amino acid 1653.2 Da purified peptide from Agalychnis calcarifer] |  | not affected | clearly evident |  |  |  | did not affect | did not affect | abolished | 2.75 ± 0.12 | 16.45 ± 0.10 ΔΔ*** ng/10^6 cells/20 min | 3.54 ± 0.20 ΔΔ*** ng/10^6 cells/20 min | 2.61 ± 0.11
